This passage reports CC50 results from patent US9303026B2, “Antiviral agents” (Biota Scientific Management Pty Ltd, priority 2000, dated 2016).

The series can be described thus: Cytotoxicity in uninfected treated cultures (CC50). The format is cell-based. The settings on record: human, uninfected MRC-5 human embryo lung cells; Table 7; concentration yielding 50% cytotoxicity, uninfected MRC-5 cells.

Some results are limits rather than exact numbers.

Consider `CSc1nc2ccc(OCCC3CCN(c4ccc(C)nn4)CC3)cc2o1` [Compound 4, 6-{2-[1-(6-Methyl-3-pyridazinyl)-4-piperidinyl]ethoxy}-2-methylthiobenzoxazole], for which the 50% cytotoxic concentration (CC50) was > 1 µg/mL.
